Assay results: ChEMBL document CHEMBL3804811 (J Med Chem, 2016)
Converted amounts (≈) assume the structure as drawn. The source made the active and inactive calls. The rule behind the calls is not given here.

Experiments:
[1] = Antiproliferative activity against human SR786 cells expressing ALK protein incubated for 72 hrs by cell titer-glo assay; assay type: functional, cell-based; conditions: SR-786, 72 h
[2] = test system: NCI-H2228; conditions: Homo sapiens
Description: Antitumor activity against human NCI-H2228 cells xenografted in athymic nu/nu mouse assessed as tumor growth inhibition at 30 to 60 mg/kg, po bid administered for 10 days

[3] = Oral bioavailability in Sprague-Dawley rat at 10 mg/kg administered as single dose by LC-MS/MS analysis; assay type: ADME, organism-based; conditions: in vivo
[4] = Oral bioavailability in Harlan nu/nu mouse at 10 mg/kg administered as single dose by LC-MS/MS analysis; assay type: ADME, organism-based; conditions: in vivo
[5] = biological target: Vascular endothelial growth factor receptor 3 (Homo sapiens, UniProt P35916); assay: Inhibition of VEGFR3 (unknown origin) in presence of gamma33-ATP
Chain of Vascular endothelial growth factor receptor 3 (P35916 whole entry): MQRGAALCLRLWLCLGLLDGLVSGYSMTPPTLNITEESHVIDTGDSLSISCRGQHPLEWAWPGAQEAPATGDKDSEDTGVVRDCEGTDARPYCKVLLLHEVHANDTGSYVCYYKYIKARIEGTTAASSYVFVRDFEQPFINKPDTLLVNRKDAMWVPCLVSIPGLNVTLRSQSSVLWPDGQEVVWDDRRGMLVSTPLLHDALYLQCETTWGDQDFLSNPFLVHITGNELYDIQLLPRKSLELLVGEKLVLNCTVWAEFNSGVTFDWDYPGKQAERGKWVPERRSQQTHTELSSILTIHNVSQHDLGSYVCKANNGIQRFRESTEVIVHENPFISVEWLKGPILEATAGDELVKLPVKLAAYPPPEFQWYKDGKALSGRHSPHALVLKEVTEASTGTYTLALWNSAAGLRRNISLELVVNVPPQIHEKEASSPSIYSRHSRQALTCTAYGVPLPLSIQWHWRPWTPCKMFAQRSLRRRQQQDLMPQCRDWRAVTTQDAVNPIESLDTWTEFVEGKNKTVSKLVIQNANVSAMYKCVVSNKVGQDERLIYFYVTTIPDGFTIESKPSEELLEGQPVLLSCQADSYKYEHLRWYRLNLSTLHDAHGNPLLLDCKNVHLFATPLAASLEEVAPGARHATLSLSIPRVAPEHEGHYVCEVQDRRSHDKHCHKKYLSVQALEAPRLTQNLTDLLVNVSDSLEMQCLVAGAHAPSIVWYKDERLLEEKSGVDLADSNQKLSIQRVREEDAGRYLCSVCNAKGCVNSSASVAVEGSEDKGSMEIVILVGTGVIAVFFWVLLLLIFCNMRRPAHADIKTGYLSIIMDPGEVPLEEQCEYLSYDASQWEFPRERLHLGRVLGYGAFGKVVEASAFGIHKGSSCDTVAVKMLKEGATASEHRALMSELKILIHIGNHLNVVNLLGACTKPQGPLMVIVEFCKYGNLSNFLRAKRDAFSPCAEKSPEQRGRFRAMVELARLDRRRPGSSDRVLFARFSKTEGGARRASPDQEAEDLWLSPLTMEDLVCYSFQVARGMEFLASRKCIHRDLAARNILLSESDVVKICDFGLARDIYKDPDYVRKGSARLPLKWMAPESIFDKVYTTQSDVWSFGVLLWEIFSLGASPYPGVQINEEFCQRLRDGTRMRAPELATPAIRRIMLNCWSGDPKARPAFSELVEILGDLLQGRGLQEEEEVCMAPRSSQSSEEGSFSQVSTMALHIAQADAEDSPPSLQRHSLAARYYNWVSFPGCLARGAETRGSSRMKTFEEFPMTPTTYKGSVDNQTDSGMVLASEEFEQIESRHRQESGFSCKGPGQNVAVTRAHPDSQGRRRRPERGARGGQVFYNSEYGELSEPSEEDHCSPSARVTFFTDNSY

[6] = Cmax in Harlan nu/nu mouse at 10 mg/kg, po administered as single dose by LC-MS/MS analysis; assay type: ADME, organism-based; set-up: dose 10 mg/kg, route oral; conditions: in vivo
[7] = biological target: T1, Tyrosine-protein kinase ZAP-70 (Homo sapiens, UniProt P43403); assay: Inhibition of ZAP70 (unknown origin) in presence of gamma33-ATP
T1 sequence (P43403 whole entry): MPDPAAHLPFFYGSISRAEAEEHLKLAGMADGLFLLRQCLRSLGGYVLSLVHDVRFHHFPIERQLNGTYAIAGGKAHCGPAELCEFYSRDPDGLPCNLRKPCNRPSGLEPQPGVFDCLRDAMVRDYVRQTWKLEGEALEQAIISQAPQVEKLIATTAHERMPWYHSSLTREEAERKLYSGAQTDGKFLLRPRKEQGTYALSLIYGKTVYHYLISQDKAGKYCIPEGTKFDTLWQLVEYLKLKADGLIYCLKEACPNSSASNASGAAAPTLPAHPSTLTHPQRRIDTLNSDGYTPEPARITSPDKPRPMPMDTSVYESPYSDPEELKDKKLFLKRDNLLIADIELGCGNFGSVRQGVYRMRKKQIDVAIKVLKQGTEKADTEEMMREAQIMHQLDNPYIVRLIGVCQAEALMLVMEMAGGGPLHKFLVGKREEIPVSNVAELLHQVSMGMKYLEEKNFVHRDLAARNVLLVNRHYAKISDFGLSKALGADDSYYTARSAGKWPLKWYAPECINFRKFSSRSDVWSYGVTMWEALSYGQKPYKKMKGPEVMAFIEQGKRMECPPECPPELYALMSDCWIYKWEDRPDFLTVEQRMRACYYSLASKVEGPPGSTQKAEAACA

[8] = Cmax in Sprague-Dawley rat at 10 mg/kg, po administered as single dose by LC-MS/MS analysis; assay type: ADME, organism-based; set-up: dose 10 mg/kg, route oral; conditions: in vivo
[9] = biological target: T2, Inhibitor of nuclear factor kappa-B kinase subunit beta (Homo sapiens, UniProt O14920); assay: Inhibition of IKK2 (unknown origin) in presence of gamma33-ATP
T2 sequence (O14920 whole entry): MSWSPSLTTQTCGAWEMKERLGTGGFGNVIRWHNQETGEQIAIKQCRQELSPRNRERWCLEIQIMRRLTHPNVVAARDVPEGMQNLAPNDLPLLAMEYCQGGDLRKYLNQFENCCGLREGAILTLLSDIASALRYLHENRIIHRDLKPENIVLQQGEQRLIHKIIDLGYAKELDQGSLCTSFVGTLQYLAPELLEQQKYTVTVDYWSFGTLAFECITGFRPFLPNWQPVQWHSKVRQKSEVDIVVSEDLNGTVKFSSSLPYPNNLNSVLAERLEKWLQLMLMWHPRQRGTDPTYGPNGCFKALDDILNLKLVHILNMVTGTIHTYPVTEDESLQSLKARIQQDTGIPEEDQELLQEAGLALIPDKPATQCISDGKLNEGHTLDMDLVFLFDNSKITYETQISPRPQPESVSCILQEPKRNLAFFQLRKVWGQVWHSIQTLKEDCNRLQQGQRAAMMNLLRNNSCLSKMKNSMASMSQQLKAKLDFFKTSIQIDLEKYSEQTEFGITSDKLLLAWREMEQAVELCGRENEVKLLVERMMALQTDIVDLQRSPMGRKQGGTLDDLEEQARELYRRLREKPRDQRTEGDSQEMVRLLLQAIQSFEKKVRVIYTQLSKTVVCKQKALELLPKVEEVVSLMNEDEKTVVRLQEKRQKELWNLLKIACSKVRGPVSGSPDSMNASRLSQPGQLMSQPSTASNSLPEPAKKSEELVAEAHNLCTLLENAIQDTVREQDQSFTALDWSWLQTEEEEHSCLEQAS

[10] = Half life in Harlan nu/nu mouse at 10 mg/kg, po administered as single dose by LC-MS/MS analysis; assay type: ADME, organism-based; conditions: in vivo
[11] = AUC (infinity) in Beagle dog at 10 mg/kg, po administered as single dose by LC-MS/MS analysis; assay type: ADME, organism-based, Canis lupus familiaris; set-up: dose 10 mg/kg, time infinity, route oral; conditions: in vivo
[12] = Cmax in Beagle dog at 10 mg/kg, po administered as single dose by LC-MS/MS analysis; assay type: ADME, organism-based, Canis lupus familiaris; set-up: dose 10 mg/kg, route oral; conditions: in vivo
[13] = Antiproliferative activity against human SU-DHL1 cells expressing ALK protein incubated for 72 hrs by cell titer-glo assay; assay type: functional, cell-based; conditions: SU-DHL-1, 72 h
[14] = Half life in Sprague-Dawley rat at 10 mg/kg, iv administered as single dose by LC-MS/MS analysis; assay type: ADME, organism-based; conditions: in vivo
[15] = Intrinsic clearance in rat hepatocytes at […] after 10 to 90 mins by LC-MS/MS analysis; assay type: ADME, cell-based, Hepatocyte; conditions: read-out: CLH
[16] = AUC (infinity) in Beagle dog at 10 mg/kg, iv administered as single dose by LC-MS/MS analysis; assay type: ADME, organism-based, Canis lupus familiaris; set-up: dose 10 mg/kg, route intravenous, time infinity; conditions: in vivo
[17] = Cmax in Sprague-Dawley rat at 10 mg/kg, iv administered as single dose by LC-MS/MS analysis; assay type: ADME, organism-based; set-up: dose 10 mg/kg, route intravenous; conditions: in vivo
[18] = Apparent permeability from basolateral to apical side in human Caco2 cells at 2.5 mg/ml after 2 hrs by reversed-phase HPLC method; assay type: ADME, cell-based; conditions: Caco-2
[19] = Inhibition of SULU1 (unknown origin) in presence of gamma33-ATP; set-up: species or system Homo sapiens
[20] = Antiproliferative activity against human SUP-M2 cells expressing ALK protein incubated for 72 hrs by cell titer-glo assay; assay type: functional, cell-based; conditions: SUP-M2, 72 h
[21] = Antiproliferative activity against human KARPAS299 cells incubated for 72 hrs by cell titer-glo assay; conditions: KARPAS-299, 72 h
[22] = biological target: Mast/stem cell growth factor receptor Kit (Homo sapiens, UniProt P10721); assay: Inhibition of KIT (unknown origin) in presence of gamma33-ATP
Chain of Mast/stem cell growth factor receptor Kit (P10721 whole entry): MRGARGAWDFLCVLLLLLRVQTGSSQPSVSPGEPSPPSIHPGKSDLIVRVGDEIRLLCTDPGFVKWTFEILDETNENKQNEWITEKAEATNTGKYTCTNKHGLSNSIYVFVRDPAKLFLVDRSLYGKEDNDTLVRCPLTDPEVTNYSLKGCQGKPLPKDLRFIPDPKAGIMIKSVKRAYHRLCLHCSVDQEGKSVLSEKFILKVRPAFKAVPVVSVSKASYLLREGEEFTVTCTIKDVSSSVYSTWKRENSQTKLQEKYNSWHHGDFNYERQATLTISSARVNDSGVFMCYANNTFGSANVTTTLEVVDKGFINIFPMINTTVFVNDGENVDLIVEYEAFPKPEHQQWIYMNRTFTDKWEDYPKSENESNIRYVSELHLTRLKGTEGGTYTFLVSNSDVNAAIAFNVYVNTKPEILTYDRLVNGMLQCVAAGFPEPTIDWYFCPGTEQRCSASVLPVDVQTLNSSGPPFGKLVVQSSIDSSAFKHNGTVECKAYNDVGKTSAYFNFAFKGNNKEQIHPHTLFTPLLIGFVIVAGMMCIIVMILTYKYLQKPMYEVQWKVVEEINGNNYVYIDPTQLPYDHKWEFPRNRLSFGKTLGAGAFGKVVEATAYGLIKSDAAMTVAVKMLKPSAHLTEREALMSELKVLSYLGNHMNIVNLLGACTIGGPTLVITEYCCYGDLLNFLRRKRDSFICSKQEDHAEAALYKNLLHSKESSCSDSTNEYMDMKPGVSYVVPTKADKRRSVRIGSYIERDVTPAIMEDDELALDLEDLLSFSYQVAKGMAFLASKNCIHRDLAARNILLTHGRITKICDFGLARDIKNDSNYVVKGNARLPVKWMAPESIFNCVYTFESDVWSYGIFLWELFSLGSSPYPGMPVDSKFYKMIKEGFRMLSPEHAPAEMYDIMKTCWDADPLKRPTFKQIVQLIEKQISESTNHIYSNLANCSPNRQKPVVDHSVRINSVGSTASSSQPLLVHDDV

[23] = Solubility of compound at pH 7 buffer; assay type: physicochemical
[24] = Oral bioavailability in Beagle dog at 10 mg/kg administered as single dose by LC-MS/MS analysis; assay type: ADME, organism-based, Canis lupus familiaris; conditions: in vivo
[25] = AUC (infinity) in Harlan nu/nu mouse at 10 mg/kg, po administered as single dose by LC-MS/MS analysis; assay type: ADME, organism-based; set-up: dose 10 mg/kg, route oral, time infinity; conditions: in vivo

bioavailability [3]: 43% | bioavailability [4]: 77% | IC50 [5]: > 1000 nM | Cmax [6]: 1330 nM | IC50 [7]: > 10000 nM | Cmax [8]: 500 nM | IC50 [9]: > 10000 nM | half-life [10]: 2.94 h | AUC(0-inf) [11]: 5.7 µM·h | Cmax [12]: 600 nM | half-life [14]: 3.5 h | CLint scaled [15]: 87 mL/min/kg | AUC(0-inf) [16]: 17.6 µM·h | Cmax [17]: 11000 nM | Papp B→A at 2 h, 2.5 mg/ml [18]: 3 ×10⁻⁶ cm/s | IC50 [19]: > 10000 nM | IC50 [22]: > 1000 nM | solubility [23]: 20 µM (≈ 11.2 µg/mL) | bioavailability [24]: 32% | AUC(0-inf) [25]: 17.4 µM·h
Structure (SMILES): CN1CCN(c2ccc(C(=O)Nc3n[nH]c4ccc(Cc5cc(F)cc(F)c5)cc34)c(NC3CCOCC3)c2)CC1 [ENTRECTINIB]
IC50 [1]: 81 nM | TGI [2]: Active | IC50 [13]: 24 nM | IC50 [20]: 41 nM | IC50 [21]: 31 nM
